Results taken from publication PMC10542788, “Discovery of a cystathionine γ-lyase (CSE) selective inhibitor targeting active-site pyridoxal 5′-phosphate (PLP) via Schiff base formation” (Scientific Reports, 2023).
Entries after “also recorded” stand apart in the source; their conditions may differ.

Experiments:
rCSE [1] = target: T1, rCSE (Rattus norvegicus, UniProt P18757); test: rCSE inhibition, H2S detection by gas chromatography; assay type: biochemical; parameters: His-tag (C); made in house; host or cells: E. coli BL21; settings: 1.5 mM cysteine, 100 μM PLP, mean ± S.E., read-out: IC50, inhibition of H2S production by rCSE
Experimental: Next, in order to further confirm the CSE-inhibitory ability of 1, we employed a gas chromatographic method. A mixture of 30 μg/mL rCSE, 100 μM PLP and 1.5 mM cysteine in 30 mM HEPES buffer (pH 7.4) with or without 1 or PAG was incubated in a sealed glass vial, and the air containing enzymatically produced H2S in the glass vial was analyzed by gas chromatography.
Supplementary Figure S4. (a) H2S production by rCSE in the presence of various concentrations of 1 was measured by gas chromatography. A solution of 30 μg/mL rCSE, 100 μM PLP and 1.5 mM cysteine in 30 mM HEPES buffer (pH 7.4) was incubated at r.t. for 60 min. Error bars represent ±S.D. (n = 4). (b) Inhibitory activity of 1 (mean ± S.E.). H2S was detected by gas chromatography. Error bars represent ± S.D. (n = 4).

COS7 cells = test: CCK-8 cell viability assay; assay type: cell-based; settings: 27 h, 37 °C
Experimental: We next examined the suitability of 1 for live-cell experiments. First, we performed CCK-8 assay (Dojindo) to examine its cytotoxicity. COS7 cells were incubated with various concentrations of 1 for 27 h at 37 °C under 5% CO2 and the cell viability was assessed. […] We then examined whether 1 can inhibit the enzymatic activity of hCSE in living cells by employing an indirect approach (Supplementary Fig. S12). HEK293T cells expressing hCSE were incubated with 0–1 mM 1 for 30 min, then washed twice with phosphate-buffered saline (PBS), and lysed in RIPA buffer (50 mM Tris–HCl buffer (pH 7.6), 150 mM NaCl, 1% Nonidet P40 Substitute, 0.5% sodium deoxycholate, protease inhibitor cocktail, 0.1% SDS). The inhibitory activity of 1 was evaluated by fluorescence detection after adding 1.5 mM cysteine, 100 μM PLP and 1 μM HSip-1 to these cell lysates.
We performed CCK-8 (Cell Counting Kit-8) assay (Dojindo) to examine cell viability. […] This absorbance is proportional to the number of living cells. […] The absorbance at 450 nm was measured with a microplate reader (EnVision, Perkin Elmer).
Supplementary Figure S11. […] COS7 cells were incubated in DMEM (Dulbecco’s modified Eagle’s medium) containing 1 (1, 3, 10, 30 and 100 µM) for […] and the cell viability was measured using CCK-8 reagent. […]

rCSE [2] = target: T1, rCSE; test: SPR measurement of binding between rCSE and 1; parameters: made in house; host or cells: E. coli
Experimental: Moreover, we performed surface plasmon resonance (SPR) assay to investigate the binding kinetics between rCSE and 1. rCSE was immobilized on a sensor chip of an SPR sensor, and various concentrations (6.25, 12.5, 25 and 50 µM) of 1 were flowed over it. The sensor chip was flushed with buffer solution not containing 1 before each concentration change of 1. […] In SPR binding studies between small molecule ligands and proteins, the washing process often markedly decreases the SPR signal.
The interaction between rCSE and oxamic hydrazide was analyzed using a Biacore T200 SPR instrument (Cytiva). A CM7 Biacore sensor chip (Cytiva) was used to immobilize rCSE at approximately 35,000 RU after activation with N-hydroxysuccinimide/N-ethyl-N′-(3-dimethylaminopropyl) carbodiimide hydrochloride. Acetate buffer (pH 5.5) was used to dilute rCSE. The activated surface of the sensor was blocked with 1 M ethanolamine. The interaction between rCSE and oxamic hydrazide was measured by injecting increasing concentrations of oxamic hydrazide into the sensor chip. The interaction was measured in 20 mM HEPES (pH 7.4) containing 150 mM NaCl, 0.5 mM TCEP, 100 µM PLP, 0.005% (v/v) Tween-20 and 1% (v/v) DMSO as a cosolvent.

rCSE [3] = target: T1, rCSE; test: rCSE inhibition, cysteine persulfide (sulfane sulfur) production from cystine detected with SSP4; assay type: biochemical; parameters: His-tag (C); made in house; host or cells: E. coli BL21; settings: cystine as substrate, SSP4 probe, mean ± S.E.
Experimental: We further examined whether or not 1 can inhibit the production of cysteine persulfide from cystine by CSE (Supplementary Fig. S5)[10], using a commercially available sulfane sulfur-detecting probe, SSP4.
10 µL of 0.5 mM cystine solution in 30 mM HEPES (pH 7.4) was added to 10 µL of solution containing 50 µg/mL rCSE, 100 µM PLP, 1 µM SSP4 (Dojindo), 0.005% tween 20 and various concentrations of the inhibitor (0.5% DMSO as a cosolvent). The mixture was incubated at 37 °C for 60 min and the fluorescence intensity of SSP4 was measured with a microplate reader.

T1 sequence (P18757 whole entry): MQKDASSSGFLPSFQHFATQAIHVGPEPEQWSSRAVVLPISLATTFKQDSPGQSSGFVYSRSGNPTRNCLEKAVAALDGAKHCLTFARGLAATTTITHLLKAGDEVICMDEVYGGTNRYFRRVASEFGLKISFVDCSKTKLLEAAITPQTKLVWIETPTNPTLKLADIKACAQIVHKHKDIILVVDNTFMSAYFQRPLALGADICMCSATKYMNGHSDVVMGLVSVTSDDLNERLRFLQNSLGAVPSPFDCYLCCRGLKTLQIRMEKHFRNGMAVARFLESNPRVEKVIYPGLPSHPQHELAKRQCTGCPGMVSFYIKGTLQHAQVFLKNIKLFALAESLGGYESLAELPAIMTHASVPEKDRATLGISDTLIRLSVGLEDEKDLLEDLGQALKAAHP

Q: What does the source list for `NNC(=O)C(N)=O` [Compound 1, oxamic hydrazide]?
A: IC50 (rCSE [1]): 23 ± 6 µM; cytotoxicity (cell viability) (COS7 cells): No cytotoxicity was observed below 100 µM; binding to rCSE (SPR) (rCSE [2]; 6.25, 12.5, 25 and 50 µM): increased concentration-dependently; dissociation from rCSE during washing (SPR) (rCSE [2]; washing with buffer not containing 1): little dissociation occurs; also recorded: no dissociation; IC50 (rCSE [3]): 33 ± 3 µM
